The record followed here is patent US20030138429A1, “Compositions and methods for inhibiting metastasis” (priority 2001, published 2003).

Assay [1] deals with 1-LN cells. Nature of the assay: In vitro Matrigel invasion assay (modified Boyden chamber). It is filed as cell-based, human. As for the experimental part: In Vitro Invasion Assay—The invasive activity in vitro was assessed by determining the ability of 1-LN cells to invade Matrigel® [47]. Polycarbonate filters (8-μm pore size; Becton Dickinson, Franklin Lakes, N.J.) were coated with Matrigel (12 μg/filter) and placed in a modified Boyden chamber. Cells (1×10^5) were added to the upper chamber in serum-free RPMI 1640 medium, or medium containing purified Pg 2 glycoforms in the absence and presence of anti-DPP IV, anti-u-PA or anti-MMP-9 IgGs, and incubated for 48 h in a humidified atmosphere. Following incubation, non-invading cells were removed from the upper chamber with a cotton swab, and filters were excised and stained with Cyto-Quik™ (Fisher Scientific, Fair Lawn, N.J.). Cells on the lower surface of the filter were enumerated using an ocular micrometer and counting a minimum of five high-powered fields. Each experiment was performed twice with triplicate samples.
Effect of Pg on 1-LN Cellular Invasion—Pg enhances the ability of prostate cancer PC-3 and DU-145 cell lines to penetrate the synthetic basement membrane Matrigel® [54]. To determine whether Pg regulates invasion via secretion of MMP-9, 1-LN cells were incubated with different inhibiting antibodies in the presence of purified Pg 2 glycoforms.

Assay [2] has as its target T1, DPP IV isolated from 1-LN cell membranes (Homo sapiens, UniProt P27487).
T1 construct: DPP IV from 1-LN cell membranes was purified to homogeneity as described under Experimental Procedures; endogenous in cells; host or cells: 1-LN human prostate tumor cells; Membranes were solubilized with Triton X-100; The enzyme was then purified on DEAE-Sepharose, Gly-Leu-Sepharose, concanavalin A-Sepharose and by gel filtration
Briefly: Solid phase radioligand binding of Pg 2 glycoforms to immobilized DPP IV. The settings on record: for Binding to immobilized DPP IV: DPP IV 1 μg/ml coated on 96-well plates, in words. As for the experimental part: Purification of DPP IV from 1-LN Cell Membranes—Cells grown in 20 culture flasks (150 cm^2) were detached with 10 mM EDTA in Hanks' balanced salt solution (HBSS) and pelleted by centrifugation. The cell pellet was suspended in 10 ml of 20 mM Hepes, pH 7.2, containing 0.25 M sucrose and 0.5 mg/ml each of the following proteinase inhibitors: antipain-HCl, bestatin, chymostatin, transepoxysuccinyl-L-leucylamido-(4-guanidino)butane (E-64), leupeptin, pepstatin, O-phenanthroline, and aprotinin. Cells were lyzed by sonication on ice (five 10 s bursts with 30 s intervals). All procedures were performed at 4° C. The homogenate was centrifuged at 800×g for 15 min to remove unbroken cells and nuclei, followed by centrifugation of the supernatant at 50,000×g for 1 h. The pellet containing cell membranes was resuspended in 20 mM Tris-HCl, pH 8.0, containing 1% (v/v) Triton X-100 to solubilize membranes and centrifuged again at 50,000×g for 30 min to remove insoluble materials. DPP IV activity in this supernatant and in all the following purification steps was monitored by a chromogenic assay using the DPP IV substrate Gly-Pro-pNA [36]. The enzyme was sequentially purified to homogeneity using DEAE-Sepharose ion exchange chromatography and Gly-Leu-Sepharose affinity chromatography, followed by chromatography on concanavalin A-Sepharose and gel filtration on a Sepharose S-200 column. These steps yielded fully active DPP IV (˜40 μg/1×10^9 cells). […] A sample of the protein was analyzed by matrix-assisted laser desorption ionization-MS, and the obtained mass spectrometric peptide maps (30 peptides) were used to identify DPP IV in the OWL Protein database release 29.6 [38,39].
Solid Phase Radioligand Binding Studies—To study specific binding of Pg 2 glycoforms to immobilized DPP IV purified from 1-LN cells, 96-well strip plates were coated with DPP IV (1 μg/ml in 0.1 M sodium carbonate, pH 9.6, 200 μl/well, 37° C., 2 h). After coating, plates were washed with 200 μl of 10 mM sodium phosphate, 100 mM NaCl, pH 7.4, containing 0.05% Tween-80 (PBS-Tween) to remove unbound protein. Non-specific sites were blocked by incubating with PBS-Tween containing 2% BSA at room temperature for 1 h. Plates were rinsed twice with 200 μl of PBS-Tween, air dried, and stored at 4° C. For assays, increasing concentrations of ^125I-labeled Pg 2 glycoforms, with or without 50-fold excess of unlabeled ligands, were added to triplicate wells and incubated at 37° C. for 1 h. Following incubation, the supernatants were removed and the plates rinsed three times with 200 μl PBS-Tween. Wells were stripped from the plates and radioactivity measured. Specific binding was calculated by substraction of non-specific binding measured in the presence of unlabeled ligand.
Binding of Pg 2 Glycoforms to Immobilized DPP IV Isolated from 1-LN Cell Membranes—Once identified as a Pg receptor, DPP IV from 1-LN cell membranes was purified to homogeneity as described under Experimental Procedures. […] A blot binding assay with mAb clone in the Mr˜120,000 size range. […] DPP IV immobilization on cell culture plates and binding assays of Pg 2 glycoforms were performed as described under Experimental Procedures.

Assay [3] deals with 1-LN cells. Briefly: MMP-9 mRNA levels in 1-LN cells by RT-PCR. Type of assay: cell-based, human. The conditions noted are these: for MMP-9 EXPRESSION mRNA: Yes/No; for Relative MMP-9 mRNA levels (ratio MMP-9 mRNA/GAPDH mRNA): glycoform 0.1 μM, 24 h, versus serum-free medium alone, in words. How it is done:
RNA Isolation—To determine changes in MMP-9 mRNA induced by Pg, 1-LN cells were grown in 48 well culture plates (1.7×10^6 cells/well) and incubated with each individual Pg 2 glycoform for 24 h at 37° C. Cell monolayers were then rinsed twice in serum-free RPMI 1640 and total RNA extracted by a single-step method, using RNeach Mini kit (Qiagen, Chatsworth, Calif.), according to the manufacturer's instructions.
Measurement of MMP-9 mRNA Levels by Reverse Transcription-PCR (RT-PCR)—Total RNA was reverse transcribed with 1 μg of RNA in a 20 μl reaction mixture, using M-MLV reverse transcriptase (200 U) and oligo d(T) as primer for 1 h at 42° C. The resulting cDNA (5 μl) was used as a template and a […] segment of the MMP-9 cDNA was amplified, using a 24-mer upstream primer (5′-[…]-3′), identical to positions 2079-2102 and a 29-mer downstream primer (5′-[…]-3′) complimentary to positions 2270-2298 of the human MMP-9 mRNA [45]. A 600-bp segment of the glyceraldehyde phosphate dehydrogenase (GAPDH, constitutive internal control) cDNA was co-amplified, using a 24-mer upstream primer (5′-[…]), identical to positions 212-235 and a 24-mer downstream primer (5′-[…]-3′), complimentary to positions 786-809 of the human GAPDH mRNA [46]. Amplification was carried out in a Techne Thermal Cycler PHC-3 for 28 cycles (one cycle=94° C. for 45 s, 60° C. for 45 s, and 72° C. for 45 s). PCR products were analyzed on a 1.2% agarose-ethidium bromide gel. The gels were photographed and the intensity of the individual MMP-9 and GAPDH mRNA bands measured by laser densitometric scanning, using a Molecular Dynamics Personal Densitometer. Changes in MMP-9 mRNA levels were expressed as a relative ratio of MMP-9 mRNA/GAPDH mRNA band intensities.

[4] abbreviates: Serum-Free Medium + glycoform 0.1 μM.
Setting [5] is: glycoform 0.1 μM +Anti-DPP IV IgG 50 μg/ml.
Setting [6] is: glycoform 0.1 μM +Anti-MMP-9 IgG 20 μg/ml.
Where [7] appears, read: glycoform 0.1 μM +Anti-u-PA IgG 100 μg/ml.

T1 sequence (P27487 whole entry): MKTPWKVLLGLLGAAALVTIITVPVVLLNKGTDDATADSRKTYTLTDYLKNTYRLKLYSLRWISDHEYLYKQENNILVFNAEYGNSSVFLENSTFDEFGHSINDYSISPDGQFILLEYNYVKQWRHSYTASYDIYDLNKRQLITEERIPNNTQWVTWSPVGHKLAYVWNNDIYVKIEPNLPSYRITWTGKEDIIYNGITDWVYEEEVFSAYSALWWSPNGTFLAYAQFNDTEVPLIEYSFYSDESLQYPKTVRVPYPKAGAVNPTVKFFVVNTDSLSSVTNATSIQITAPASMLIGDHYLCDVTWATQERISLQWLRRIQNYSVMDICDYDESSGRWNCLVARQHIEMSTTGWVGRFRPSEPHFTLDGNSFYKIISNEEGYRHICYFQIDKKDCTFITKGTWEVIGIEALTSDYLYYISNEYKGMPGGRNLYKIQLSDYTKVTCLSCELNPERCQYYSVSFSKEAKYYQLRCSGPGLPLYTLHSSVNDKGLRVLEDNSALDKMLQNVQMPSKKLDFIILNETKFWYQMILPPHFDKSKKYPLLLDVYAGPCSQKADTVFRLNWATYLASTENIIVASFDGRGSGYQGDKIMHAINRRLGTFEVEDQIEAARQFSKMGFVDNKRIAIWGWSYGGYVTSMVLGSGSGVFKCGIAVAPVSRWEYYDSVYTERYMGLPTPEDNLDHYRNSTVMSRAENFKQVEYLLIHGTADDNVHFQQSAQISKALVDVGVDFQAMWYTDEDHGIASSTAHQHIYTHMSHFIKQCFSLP

For the compound “Pg 2α: glycoform of human plasminogen type 2 purified from plasma; 1.3 mol sialic acid/mol Pg”, the “Relative Invasion (Number of Cells/Field)” value in the assay on 1-LN cells [1] (setting [4]) is listed as 13.5 ± 3.4 Number of Cells/Field. Further, in assay [2], the “Binding to immobilized DPP IV” value is “No specific binding”. Further, in the assay on 1-LN cells [3], the “MMP-9 EXPRESSION mRNA” value is “No” and the “Relative MMP-9 mRNA levels (ratio MMP-9 mRNA/GAPDH mRNA)” value was “did not show a significant change”.
As to “Pg 2γ: glycoform of human plasminogen type 2 purified from plasma; 2.95 mol sialic acid/mol Pg”, the “Relative Invasion (Number of Cells/Field)” value in the assay on 1-LN cells [1] (setting [4]) is listed as 7.8 ± 1.6 Number of Cells/Field; in the assay on 1-LN cells [1] (setting [5]), 4.6 ± 2.7 Number of Cells/Field; in the assay on 1-LN cells [1] (setting [6]), 2.1 ± 1.2 Number of Cells/Field; in the assay with 1-LN cells [1] (setting [7]), 5.3 ± 2.8 Number of Cells/Field. The “Binding to immobilized DPP IV” value in assay [2] was “bind to this DPP IV in a dose-dependent and saturable manner”. Moreover, the “MMP-9 EXPRESSION mRNA” value with 1-LN cells [3] is reported as “No”. Moreover, in the assay with 1-LN cells [3], the “Relative MMP-9 mRNA levels (ratio MMP-9 mRNA/GAPDH mRNA)” value is recorded as “did not show a significant change”.
Turning to “Pg 2δ: glycoform of human plasminogen type 2 purified from plasma; 5.77 mol sialic acid/mol Pg”, the “Relative Invasion (Number of Cells/Field)” value was 9.2 ± 2.5 Number of Cells/Field with 1-LN cells [1] (setting [4]), 10.4 ± 3.1 Number of Cells/Field in the assay on 1-LN cells [1] (setting [5]), 1.8 ± 1.0 Number of Cells/Field with 1-LN cells [1] (setting [6]) and 7.8 ± 2.6 Number of Cells/Field in the assay on 1-LN cells [1] (setting [7]). The “Binding to immobilized DPP IV” value in assay [2] is “bind to this DPP IV in a dose-dependent and saturable manner”. Also, the “MMP-9 EXPRESSION mRNA” value in the assay on 1-LN cells [3] was “No”. For the same compound, in the assay with 1-LN cells [3], the “Relative MMP-9 mRNA levels (ratio MMP-9 mRNA/GAPDH mRNA)” value is on record as “did not show a significant change”.
As to `OC[C@@H]1O[C@H](O[C@@H]2[C@@H](O)[C@H](O)C(O)O[C@H]2CO)[C@@H](O)[C@H](O)[C@@H]1O` (stereo partly drawn) [L-lactose, reference compound], in assay [2] (glycoforms 0.1 μM each, increasing concentrations of L-lactose), the “Inhibition of binding of 125I-labeled Pg 2γ, 2δ and 2ε to DPP IV” value was “progressively inhibited”.
As to “Pg 2β: glycoform of human plasminogen type 2 purified from plasma; 2.2 mol sialic acid/mol Pg”, the “Relative Invasion (Number of Cells/Field)” value in the assay on 1-LN cells [1] (setting [4]) was 9.4 ± 2.1 Number of Cells/Field. Moreover, the “Binding to immobilized DPP IV” value in assay [2] is listed as “No specific binding”. Moreover, in the assay on 1-LN cells [3], the “MMP-9 EXPRESSION mRNA” value is reported as “No” and the “Relative MMP-9 mRNA levels (ratio MMP-9 mRNA/GAPDH mRNA)” value is recorded as “did not show a significant change”.
As to “Pg 2ε: glycoform of human plasminogen type 2 purified from plasma; 5.34 mol sialic acid/mol Pg”, the “Enhancement of cellular invasion” value in the assay with 1-LN cells [1] (Matrigel invasion by 1-LN cells) was 6-7 fold. Also, the “Relative Invasion (Number of Cells/Field)” value was 46.6 ± 5.4 Number of Cells/Field in the assay with 1-LN cells [1] (setting [4]), 3.1 ± 1.6 Number of Cells/Field with 1-LN cells [1] (setting [5]), 1.5 ± 1.0 Number of Cells/Field with 1-LN cells [1] (setting [6]) and 2.1 ± 1.3 Number of Cells/Field in the assay on 1-LN cells [1] (setting [7]). In addition, the “Binding to immobilized DPP IV” value in assay [2] is “bind to this DPP IV in a dose-dependent and saturable manner”. Moreover, the “MMP-9 EXPRESSION mRNA” value with 1-LN cells [3] is “Yes”. Moreover, the “Relative MMP-9 mRNA levels (ratio MMP-9 mRNA/GAPDH mRNA)” value with 1-LN cells [3] was “significant increase”.
As for “Pg 2φ: glycoform of human plasminogen type 2 purified from plasma; 13.65 mol sialic acid/mol Pg”, the “Relative Invasion (Number of Cells/Field)” value in the assay with 1-LN cells [1] (setting [4]) was 6.8 ± 1.3 Number of Cells/Field. In assay [2], the “Binding to immobilized DPP IV” value is reported as “No specific binding”.
